The text below walks through data of the OPERA property sets (Mansouri et al. 2018).

For the compound `O=c1[nH]c(=O)n([C@H]2C[C@H](O)[C@@H](CO)O2)cc1Br`, the melting point (usually the temperature, or range, at which the solid turns liquid) was 192 °C.

In turn, `COC(=O)C(C)Oc1ccc(Oc2ncc(C(F)(F)F)cc2Cl)cc1` (stereo not drawn) had a log10 Koc (L/kg) of 1.88, a log10 vapour pressure (mmHg) of -5.22 and a melting point of 56 °C.

For the compound `c1ccc(CSc2ccccc2)cc1`, the melting point was determined as 43.5 °C.

For the compound `Fc1ccc(Br)cc1`, the boiling point (in general, the temperature at which the vapour pressure of the liquid equals the pressure above it) turned out to be 152 °C and the melting point was -17.4 °C.

As for `CCCN=C=O`, the boiling point was determined as 83.5 °C.

For `CCCCOC(=O)C(C)O` (stereo not drawn), the boiling point was found to be 186 °C, the log10 vapour pressure (mmHg) is -0.398 and the melting point was -28 °C.

In turn, `OCc1ccccc1` showed a boiling point of 205 °C, a log10 Henry constant (atm·m³/mol) of -6.47, a log10 Koc (L/kg) of 1.1 and a log10 vapour pressure (mmHg) of -1.03. The melting point is -15.2 °C and the ready biodegradability entry is listed as “readily biodegradable”.

On to `CCC=NO`, for which the boiling point stood at 132 °C and the melting point is 40 °C.

In the case of `O=C(O)c1ccccc1-c1ccccc1C(=O)O`, the melting point was found to be 234 °C and the ready biodegradability entry was “readily biodegradable”.

`CCCCCCOCCO` came in with a boiling point of 208 °C, a log10 vapour pressure (mmHg) of -0.81 and a melting point of -45.1 °C.

Regarding `COC(=O)c1cccnc1`, the boiling point is 204 °C and the melting point turned out to be 42.5 °C.

For the compound `CC[N+](=O)[O-]`, the boiling point came to 114 °C, the log10 Henry constant (atm·m³/mol) is -4.32, the log10 Koa turned out to be 2.88 and the log10 vapour pressure (mmHg) amounted to 1.32. This compound yielded a melting point of -89.5 °C.

For `FC(F)C(F)(F)F`, the boiling point is -48.5 °C, the log10 vapour pressure (mmHg) amounted to 4.02 and the melting point is -103 °C.

In turn, `O=C1OC2(c3ccccc31)c1cc(Br)c(O)c(Br)c1Oc1c2cc(Br)c(O)c1Br` displayed a melting point of 295 °C.

With `CCCCNC(N)=O`, the melting point worked out at 97 °C.

Compound `Cc1cccc(Cl)c1O` returned a boiling point of 189 °C.

With `COCCC(C)C`, the boiling point stood at 91 °C.

Regarding `Clc1ccc(Cl)c(Cl)c1Cl`, the boiling point came out at 254 °C, the log10 Henry constant (atm·m³/mol) is -3.12, the log10 Koa worked out at 5.64 and the log10 Koc (L/kg) came to 3.84. For the same compound, the log10 vapour pressure (mmHg) is -1.41, the melting point was found to be 47.5 °C and the ready biodegradability result is recorded as “not readily biodegradable”.

`CC1(C)OC(c2ccco2)CN1C(=O)C(Cl)Cl` (stereo not drawn) had a log10 vapour pressure (mmHg) of -7.31 and a melting point of 97 °C.

Take `N#Cc1c(F)c(F)c(F)c(F)c1F`: the boiling point turned out to be 162 °C and the melting point is 2.4 °C.

On to `CC1(C)C=Cc2c(ccc3c2OC2c4ccc(O)cc4OCC32)O1` (stereo not drawn), for which the melting point worked out at 178 °C.

In turn, `O=C(O)c1ccccc1C(F)(F)F` displayed a melting point of 111 °C.

The compound `C[C@@]12CCC[C@H]1[C@@H]1CC[C@H]3CCCC[C@]3(C)[C@H]1CC2` yielded a melting point of 64.6 °C.

Take `CS(=O)(=O)c1c(F)c(F)c(F)c(F)c1F`: the log10 Koc (L/kg) turned out to be 1.46.

For `C=C1CCO[C@]2([C@H](O)[C@@](C)(O)CO)NC(=O)[C@@]1(O)NC2=O`, the melting point was found to be 188 °C.

On to `CC(/C=C/C=C(C)/C=C/[C@@]12O[C@]1(C)C[C@@H](O)CC2(C)C)=C\C=C\C=C(C)\C=C\C=C(C)\C=C\[C@@]12O[C@]1(C)C[C@@H](O)CC2(C)C`, for which the melting point is 208 °C.

Regarding `O=C(O)c1ccc(Br)cc1`, the log10 vapour pressure (mmHg) was -5 and the melting point turned out to be 254 °C.

For `Clc1cc2c(cc1Cl)Oc1cc(Cl)c(Cl)cc1O2`, the log10 Koa was determined as 10.1, the log10 Koc (L/kg) was 6.5, the log10 vapour pressure (mmHg) was -8.82 and the melting point stood at 305 °C. The ready biodegradability entry is recorded as “not readily biodegradable”.

As for `COC(=O)c1cc2ccccc2cc1O`, the melting point amounted to 75.5 °C.

In turn, `CCCC/C=C/CCCCC` gave a boiling point of 192 °C and a melting point of -83.8 °C.

`Cc1cc(N)nc(C)n1` had a melting point of 183 °C.

Take `FC(F)=C(F)C(F)(F)F`: the boiling point was -29.6 °C, the log10 vapour pressure (mmHg) was 3.69 and the melting point was -156 °C.

`CC(C)(C)C(=O)CC#N` registered a melting point of 71 °C.

For the compound `O=C(O)c1ccc(Cl)cc1[N+](=O)[O-]`, the melting point came to 144 °C.

On to `Cc1c([C@H](C)[C@@H]2NC[C@@H](C)C[C@H]2O)ccc2c1C[C@H]1[C@H]2CC=C2C[C@@H](O)CC[C@@]21C`, for which the melting point was 206 °C.

For `O=[N+]([O-])c1ccc(Cl)c(Cl)c1Cl`, the melting point came to 55.5 °C.

`Clc1c(Br)c(Br)c2c(c1Br)Oc1c(Br)c(Br)c(Cl)c(Br)c1O2` gave a log10 vapour pressure (mmHg) of -12.5 and a melting point of 385 °C.

`N#Cc1ccncc1C#N` yielded a melting point of 80 °C.

Compound `CCOC(=O)C(Br)CBr` (stereo not drawn) gave a boiling point of 214 °C.

As to `CC(=O)c1ccccc1Cl`, the ready biodegradability entry is given as “not readily biodegradable”.

As to `O=C(O)CCCCCCC[C@H](O)[C@H](O)CCCCCCO`, the melting point was determined as 100 °C.

In the case of `C=CCCCCCCCCC=C`, the boiling point turned out to be 208 °C.

As for `O=C1OC(=O)C(F)(F)C1(F)F`, the boiling point stood at 54.5 °C.

As for `CCCCCCC(=O)OCC(C)C`, the boiling point was found to be 208 °C.

`O=C(O)COc1cccc2ccccc12` gave a melting point of 196 °C.

As to `C=C(F)F`, the boiling point was -85.7 °C, the log10 vapour pressure (mmHg) is 4.48 and the melting point is -144 °C.

As for `c1ccc2c(c1)[nH]c1cnccc12`, the melting point was 199 °C.

`CC(C)OC(=O)C(C)Cl` (stereo not drawn) returned a boiling point of 152 °C.
